The record followed here is patent publication US6706736B2, “Antidepressant azaheterocyclylmethyl derivatives of oxaheterocycle-fused-[1,4]-benzodioxans” (Wyeth, priority 2001, dated 2004).

For series [1], the target named is T1, cloned human 5-HT1A receptors (Homo sapiens, UniProt P08908).
T1 construct: expressed in transfected cells
T1 sequence (P08908 1-422): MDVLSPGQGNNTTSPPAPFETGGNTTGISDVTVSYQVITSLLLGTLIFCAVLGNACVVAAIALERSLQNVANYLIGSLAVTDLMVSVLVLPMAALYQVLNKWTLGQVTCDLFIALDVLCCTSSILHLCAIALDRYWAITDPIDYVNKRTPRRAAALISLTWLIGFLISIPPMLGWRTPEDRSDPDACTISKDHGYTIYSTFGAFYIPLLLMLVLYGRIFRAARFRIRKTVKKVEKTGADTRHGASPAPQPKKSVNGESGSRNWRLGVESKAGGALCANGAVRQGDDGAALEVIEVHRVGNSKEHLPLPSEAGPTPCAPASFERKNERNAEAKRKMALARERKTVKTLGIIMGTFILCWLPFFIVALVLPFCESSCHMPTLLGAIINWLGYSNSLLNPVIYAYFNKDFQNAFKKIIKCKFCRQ
The series is described as follows: 35S-GTPγS binding assay, antagonist activity at 5-HT1A receptors. In kind it is biochemical. The following applies: reversal of standard agonist 8-OHDPAT; for IC50: read-out: 5-HT1A Function IC50; for 5-HT1A Function Imax (maximum inhibitory effect): value in parentheses. As to the method:
Antagonist activity at 5-HT1A receptors was established by using a ^35S-GTPγS binding assay similar to that used by Lazareno and Birdsall (Br. J. Pharmacol. 109: 1120, 1993), in which the test compound's ability to affect the binding of ^35S-GTPγS to membranes containing cloned human 5-HT1A receptors was determined. Agonists produce an increase in binding whereas antagonists produce no increase but rather reverse the effects of the standard agonist 8-OHDPAT. The test compound's maximum inhibitory effect is represented as the Imax, while its potency is defined by the IC50.
For orientation: Binding of GTPγS marks nucleotide exchange on a G protein.

For another series, the target named is T2, serotonin transporter (Rattus norvegicus, UniProt P31652).
T2 construct: displace ^3H-paroxetine from male rat frontal cortical membranes; from tissue; host or cells: male rat frontal cortex membranes
T2 sequence (P31652 whole entry): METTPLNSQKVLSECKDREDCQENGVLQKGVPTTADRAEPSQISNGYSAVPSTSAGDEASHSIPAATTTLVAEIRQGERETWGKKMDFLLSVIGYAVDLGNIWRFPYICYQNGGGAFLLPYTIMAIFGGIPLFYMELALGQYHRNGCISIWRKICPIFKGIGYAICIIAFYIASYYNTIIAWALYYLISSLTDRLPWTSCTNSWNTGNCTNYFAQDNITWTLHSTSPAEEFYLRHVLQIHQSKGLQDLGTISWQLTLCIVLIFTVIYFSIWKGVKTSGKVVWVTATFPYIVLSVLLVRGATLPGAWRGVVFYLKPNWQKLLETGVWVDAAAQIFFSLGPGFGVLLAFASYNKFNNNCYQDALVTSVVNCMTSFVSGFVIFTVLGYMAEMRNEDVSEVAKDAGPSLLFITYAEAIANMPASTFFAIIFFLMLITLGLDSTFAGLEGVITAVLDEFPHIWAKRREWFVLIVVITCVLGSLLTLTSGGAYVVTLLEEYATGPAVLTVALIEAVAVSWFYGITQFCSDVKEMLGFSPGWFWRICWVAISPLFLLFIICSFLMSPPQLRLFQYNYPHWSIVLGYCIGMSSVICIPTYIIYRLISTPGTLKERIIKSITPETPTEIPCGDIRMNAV
The series is described as follows: 3H-paroxetine displacement from rat frontal cortical membranes (serotonin transporter affinity). In kind it is binding.

The next series deals with T3, human 5-HT1A receptors (Homo sapiens, UniProt P08908).
T3 construct: expressed in transfected cells; host or cells: CHO cells (stably transfected)
T3 sequence (P08908 1-422): T1 sequence (P08908 1-422)
The series is described as follows: [3H] 8-OHDPAT displacement from 5-HT1A receptor in transfected CHO cells. Type of series: binding. An excerpt:
High affinity for the serotonin 5-HT1A receptor was established by testing the claimed compound's ability to displace [^3H] 8-OHDPAT (dipropylaminotetralin) from the 5-HT1A serotonin receptor following a modification of the procedure of Hall et al., J. Neurochem. 44, 1685 (1985) which utilizes CHO cells stably transfected with human 5-HT1A receptors.

[2] abbreviates: 3H-paroxetine, male rat frontal cortical membranes, read-out: 5-HT Transporter Affinity KI.

The structures appear in SMILES notation. Structures can show the parent of a compound that is named as a salt. Where two headings read alike, the source gives them in different places.

One may read the melting point as the temperature of the solid-liquid transition. What is called IC50 is the concentration needed to halve the response being measured. The term Ki denotes a measure of affinity in units of concentration, obtained from inhibition or displacement.

`Cc1cc2ccc3c(c2o1)OC(CN1CC=C(c2c[nH]c4ccccc24)CC1)CO3` (stereo not shown) [Example 1] yielded a melting point of 198 to 200 °C.

Regarding `C1=C(c2c[nH]c3ccccc23)CCN(CC2COc3ccc4c(c3O2)CCO4)C1` (stereo not shown) [Example 2, 3-{1-[2,3,8,9-Tetrahydrofuro[3,2-f][1,4]benzodioxin-2-ylmethyl]-1,2,3,6-tetrahydro-4-pyridinyl}-1H-indole], the melting point was 207 to 209 °C. In series [1], the IC50 came to 264 nM and the “5-HT1A Function Imax (maximum inhibitory effect)” value came out at 66.0. The compound further showed a Ki on serotonin transporter of 34 nM. This compound also displayed a Ki on human 5-HT1A receptors of 46 nM.

As for `Fc1ccc2[nH]cc(C3=CCN(CC4COc5ccc6c(c5O4)CCCO6)CC3)c2c1` (stereo not shown) [Example 5, 5-Fluoro-3-{1-[2,3,9,10-tetrahydro-8H-[1,4]dioxino[2,3-f]chromen-2-ylmethyl]-1,2,3,6-tetrahydro-4-pyridinyl}-1H-indole], the IC50 in series [1] turned out to be 347 nM. Also, the “5-HT1A Function Imax (maximum inhibitory effect)” value in series [1] is 100. Moreover, the Ki amounted to 10 nM at serotonin transporter and 29.4 nM at human 5-HT1A receptors.

Regarding `C1=C(c2c[nH]c3ccccc23)CCN(CC2COc3ccc4occc4c3O2)C1` (stereo not shown) [Example 3, 3-{1-[2,3-Dihydrofuro[3,2-f][1,4]benzodioxin-2-ylmethyl]-1,2,3,6-tetrahydropyridin-4-yl}-1H-indole], the melting point is 208 to 209 °C. Moreover, in series [1], the half-maximal inhibitory concentration (IC50) is 19 nM and the “5-HT1A Function Imax (maximum inhibitory effect)” value is 61.0. In addition, on serotonin transporter (setting [2]), the Ki was 115 nM. Also, the affinity at human 5-HT1A receptors, expressed as Ki, was 19.6 nM.

For the compound `Cc1cc2c3c(ccc2o1)OC[C@H](CN1CC=C(c2c[nH]c4ccccc24)CC1)O3` [Example 1], in series [1], the IC50 turned out to be 241 nM and the “5-HT1A Function Imax (maximum inhibitory effect)” value worked out at 62.0. Further, the Ki at serotonin transporter (setting [2]) was 185 nM. The same compound gave an inhibitory constant (Ki) at human 5-HT1A receptors of 14.1 nM.

`C1=C(c2c[nH]c3ccccc23)CCN(CC2COc3ccc4c(c3O2)CCCO4)C1` (stereo not shown) [Example 4, 3-{1-[2,3,9,10-Tetrahydro-8H-[1,4]dioxino[2,3-f]chromen-2-ylmethyl]-1,2,3,6-tetrahydro-4-pyridinyl}-1H-indole] showed a melting point of 186 to 187 °C. Besides, in series [1], the half-maximal inhibitory concentration (IC50) stood at 868 nM and the “5-HT1A Function Imax (maximum inhibitory effect)” value is listed as 100. At serotonin transporter, this compound gave a Ki of 8.5 nM. Further, the inhibition constant (Ki) at human 5-HT1A receptors was found to be 30.4 nM.

Consider `Fc1ccc2[nH]cc(C3=CCN(CC4COc5ccc6c(c5O4)CCCO6)CC3)c2c1` (stereo not shown) (as salt: salt) [Example 5, 5-Fluoro-3-{1-[2,3,9,10-tetrahydro-8H-[1,4]dioxino[2,3-f]chromen-2-ylmethyl]-1,2,3,6-tetrahydro-4-pyridinyl}-1H-indole], for which the melting point was in the range of 205 to 206 °C.
